Patent publication US20150119378A1, “AZETIDINYLOXY-, PYRROLIDINYLOXY-, AND PIPERIDINYLOXY-SUBSTITUTED METANICOTINES AS NEURONAL NICOTINIC ACETYLCHOLINE RECEPTOR LIGANDS” (priority 2013, published 2015)
Where two headings read alike, the source gives them in different places.

Columns and labels:
Human α4β2 = target: T1, Human α4β2 (Homo sapiens, UniProt P17787+P43681); assay: Competition binding to receptors in membrane preparations, human α4β2 ([3H]-nicotine)
T1 construct: expressed in transfected cells; obtained from Dr. Ron Lukas, Barrow Neurological Institute
Description: (§1) SH-EP1/human α4β2 (Eaton et al., 2003), SH-EP1/human α4β4 (Gentry et al., 2003), SH-EP1/α6β3β4α5 (Grinevich et al., 2005), TE671/RD and SH-SY5Y cell lines (obtained from Dr. Ron Lukas, Barrow Neurological Institute) were maintained in proliferative growth phase in Dulbecco's modified Eagle's medium (Gibco/BRL) with 10% horse serum (Gibco BRL), 5% fetal bovine serum (HyClone, Logan Utah), 1 mM sodium pyruvate, 4 mM L-glutamine. For maintenance of stable transfectants, the α4β2 and α4β4 cell media was supplemented with 0.25 mg/mL zeocin and 0.13 mg/mL hygromycin B. Selection was maintained for the α6β3β4α5 cells with 0.25 mg/mL of zeocin, 0.13 mg/mL of hygromycin B, 0.4 mg/mL of geneticin, and 0.2 mg/mL of blasticidin. HEK/human α7/RIC3 cells (obtained from J. Lindstrom, U. Pennsylvania) were maintained in proliferative growth phase in Dulbecco's modified Eagle's medium (Gibco/BRL) with 10% fetal bovine serum (HyClone, Logan Utah), 1 mM sodium pyruvate, 4 mM L-glutamine, 0.4 mg/mL geneticin; 0.2 mg/ml hygromycin B.
(§2) Cells were harvested in ice-cold PBS, pH 7.4, then homogenized with a polytron (Brinkmann Instruments, Westbury, N.Y.). Homongenates were centrifuged at 40,000 g for 20 minutes (4° C.). The pellet was resuspended in PBS and protein concentration determined using the Pierce BCA Protein Assay kit (Pierce Biotechnology, Rockford, Ill.).
(§3) Binding to nicotinic receptors was assayed on membranes using standard methods adapted from published procedures (Lippiello and Fernandes, 1986; Davies et al., 1999). In brief, membranes were reconstituted from frozen stocks (approximately 0.2 mg protein) and incubated for 2 h on ice in […] assay buffer (PBS) in the presence of competitor compound (0.001 nM to […]) and radioligand. [^3H]-nicotine (L-(−)-[N-methyl-3H]-nicotine, 69.5 Ci/mmol, Perkin-Elmer Life Sciences) was used for human α4β2 binding studies. [^3H]-epibatidine (52 Ci/mmol, Perkin-Elmer Life Sciences) was used for binding studies at the other receptor subtypes. Incubation was terminated by rapid filtration on a multimanifold tissue harvester (Brandel, Gaithersburg, Md.) using GF/B filters presoaked in 0.33% polyethyleneimine (w/v) to reduce non-specific binding. Filters were washed 3 times and the radioactivity retained was determined by liquid scintillation counting.
(§4) Binding data were expressed as percent total control binding. Replicates for each point were averaged and plotted against the log of drug concentration. The IC50 (concentration of the compound that produces 50% inhibition of binding) was determined by least squares non-linear regression using GraphPad Prism software (GraphPAD, San Diego, Calif.). Ki was calculated using the Cheng-Prusoff equation (Cheng and Prusoff, 1973).

Rat Ganglion = Rat Ganglion (Rattus norvegicus, UniProt P04757+P12392); assay: Competition binding to receptors in membrane preparations, rat ganglion subtype ([3H]-epibatidine)
Description: as §3, §4

Human Ganglion = target: T2, Human Ganglion (Homo sapiens, UniProt P30926+P32297); assay: Competition binding to receptors in membrane preparations, human ganglion subtype ([3H]-epibatidine)
T2 construct: endogenous in cells
Description: as §1, §2, §3, §4

Human α7 nAChR = target: T3, Human α7 nAChR (Homo sapiens, UniProt P36544); assay: Competition binding to receptors in membrane preparations, human α7 ([3H]-epibatidine)
T3 construct: expressed in transfected cells; host or cells: HEK cells co-expressing RIC3 (from J. Lindstrom, U. Pennsylvania)
Description: as §1, §2, §3, §4

| SMILES | Ki (Human α4β2; read-out: Human α4β2 Ki) | Ki (Rat Ganglion) | Ki (Human Ganglion) | Ki (Human Ganglion; read-out: Human Ganglion Ki) | Ki (Human α7 nAChR) | Ki (Human α4β2) |
| --- | --- | --- | --- | --- | --- | --- |
| CN[C@@H](C)C/C=C/c1cncc(O[C@H]2CCN(C(C)=O)C2)c1 | 0.012 µM |  |  |  |  |  |
| CCC(=O)N1CC[C@H](Oc2cncc(/C=C/C[C@H](C)NC)c2)C1 | 0.0097 µM | 40 µM | 43 µM |  |  |  |
| CN[C@@H](C)C/C=C/c1cncc(O[C@H]2CCN(C(=O)C3CCOCC3)C2)c1 | 0.013 µM | 51 µM | 100 µM |  |  |  |
| CN[C@@H](C)C/C=C/c1cncc(O[C@@H]2CCN(C(C)=O)C2)c1 | 0.0026 µM | 24 µM | 41 µM |  |  |  |
| CCC(=O)N1CC[C@@H](Oc2cncc(/C=C/C[C@H](C)NC)c2)C1 | 0.0019 µM | 88 µM | 19 µM |  |  |  |
| CN[C@@H](C)C/C=C/c1cncc(O[C@@H]2CCN(C(=O)C3CCOCC3)C2)c1 | 0.0044 µM |  | 44 µM |  |  |  |
| CCC(=O)N1CC(Oc2cncc(/C=C/C[C@H](C)NC)c2)C1 | 0.0022 µM |  |  |  |  |  |
| CN[C@@H](C)C/C=C/c1cncc(OC2CN(C(=O)C3CCOCC3)C2)c1 | 0.0048 µM |  |  |  |  |  |
| CN[C@@H](C)C/C=C/c1cncc(O[C@H]2CCN(C(=O)C3CC3)C2)c1 | 0.014 µM |  | 20 µM |  |  |  |
| CN[C@@H](C)C/C=C/c1cncc(O[C@H]2CCN(C(=O)COC)C2)c1 | 0.0044 µM |  | 21 µM |  |  |  |
| CN[C@@H](C)C/C=C/c1cncc(O[C@H]2CCN(C(=O)c3ccco3)C2)c1 | 0.0012 µM |  | 72 µM |  |  |  |
| CCCOC(=O)N1CC[C@H](Oc2cncc(/C=C/C[C@H](C)NC)c2)C1 | 0.0077 µM |  |  | 25 µM |  |  |
| CN[C@@H](C)C/C=C/c1cncc(O[C@H]2CCN(C(=O)OCCOC)C2)c1 | 0.053 µM |  |  | 270 µM |  |  |
| CCNC(=O)N1CC[C@H](Oc2cncc(/C=C/C[C@H](C)NC)c2)C1 | 0.061 µM |  | 250 µM |  |  |  |
| CN[C@@H](C)C/C=C/c1cncc(O[C@@H]2CCN(C(=O)C3CC3)C2)c1 | 0.0051 µM |  | 83 µM |  |  |  |
| CN[C@@H](C)C/C=C/c1cncc(O[C@@H]2CCN(C(=O)COC)C2)c1 | 0.0091 µM |  | 55 µM |  |  |  |
| CN[C@@H](C)C/C=C/c1cncc(O[C@@H]2CCN(C(=O)c3ccco3)C2)c1 | 0.0047 µM |  | 50 µM |  |  |  |
| CCCOC(=O)N1CC[C@@H](Oc2cncc(/C=C/C[C@H](C)NC)c2)C1 | 0.0051 µM |  |  | 37 µM |  |  |
| CN[C@@H](C)C/C=C/c1cncc(O[C@@H]2CCN(C(=O)OCCOC)C2)c1 | 0.0066 µM |  |  | 48 µM |  |  |
| CCNC(=O)N1CC[C@@H](Oc2cncc(/C=C/C[C@H](C)NC)c2)C1 | 0.0099 µM |  | 140 µM |  |  |  |
| CN[C@@H](C)C/C=C/c1cncc(OC2CN(C(=O)COC)C2)c1 | 0.0049 µM |  |  | 42 µM |  |  |
| CN[C@@H](C)C/C=C/c1cncc(OC2CN(C(=O)c3ccco3)C2)c1 | 0.0028 µM |  |  | 20 µM |  |  |
| CCCOC(=O)N1CC(Oc2cncc(/C=C/C[C@H](C)NC)c2)C1 | 0.0039 µM |  | 44 µM |  |  |  |
| CN[C@@H](C)C/C=C/c1cncc(OC2CN(C(=O)OCCOC)C2)c1 | 0.0096 µM |  | 69 µM |  |  |  |
| CN[C@@H](C)C/C=C/c1cnc(Cl)c(O[C@H]2CCN(C(=O)C(C)C)C2)c1 | 0.013 µM | 16 µM | 27 µM |  | 29 µM |  |

| SMILES | Ki (Human α4β2; read-out: Human α4β2 Ki) | Ki (Rat Ganglion) | Ki (Human Ganglion) | Ki (Human Ganglion; read-out: Human Ganglion Ki) | Ki (Human α7 nAChR) | Ki (Human α4β2) |
| --- | --- | --- | --- | --- | --- | --- |
| CN[C@@H](C)C/C=C/c1cncc(O[C@H]2CCN(C(=O)c3ccc(F)cc3F)C2)c1 | 0.029 µM | 80 µM | 3.3 µM |  | 47 µM |  |
| CN[C@@H](C)C/C=C/c1cnc(Cl)c(O[C@H]2CCN(C(=O)c3ccc(F)cc3F)C2)c1 | 0.022 µM |  |  |  | 23 µM |  |
| CN[C@@H](C)C/C=C/c1cncc(O[C@H]2CCN(C(=O)C(C)(C)C)C2)c1 | 0.0075 µM | 130 µM | 19 µM |  | 100 µM |  |
| CN[C@@H](C)C/C=C/c1cnc(Cl)c(O[C@H]2CCN(C(=O)C(C)(C)C)C2)c1 | 0.0067 µM | 11 µM | 4.8 µM |  | 39 µM |  |
| CN[C@@H](C)C/C=C/c1cncc(O[C@H]2CCN(C(=O)C3CCC3)C2)c1 | 0.018 µM | 17 µM | 27 µM |  | 66 µM |  |
| CN[C@@H](C)C/C=C/c1cncc(O[C@H]2CCN(C(=O)C3CCCC3)C2)c1 | 0.0078 µM | 6.9 µM | 13 µM |  | 85 µM |  |
| CN[C@@H](C)C/C=C/c1cnc(Cl)c(O[C@H]2CCN(C(=O)C3CCCC3)C2)c1 | 0.0021 µM | 55 µM | 7.6 µM |  | 160 µM |  |
| CN[C@@H](C)C/C=C/c1cncc(O[C@H]2CCN(C(=O)CC(C)(C)C)C2)c1 |  | 21 µM | 12 µM |  | 65 µM | 0.011 µM |
| CN[C@@H](C)C/C=C/c1cnc(Cl)c(O[C@H]2CCN(C(=O)CC(C)(C)C)C2)c1 | 0.0064 µM | 11 µM | 15 µM |  | 48 µM |  |
| CN[C@@H](C)C/C=C/c1cncc(O[C@H]2CCN(C(=O)CC(F)(F)F)C2)c1 | 0.003 µM | 6.8 µM | 5.4 µM |  | 68 µM |  |
| CN[C@@H](C)C/C=C/c1cnc(Cl)c(O[C@H]2CCN(C(=O)CCC(F)(F)F)C2)c1 |  | 31 µM | 25 µM |  | 13 µM | 0.0028 µM |
| CN[C@@H](C)C/C=C/c1cncc(O[C@@H]2CCN(C(=O)CC(C)(C)C)C2)c1 |  | 35 µM | 43 µM |  | 260 µM | 0.032 µM |
| CN[C@@H](C)C/C=C/c1cncc(O[C@@H]2CCN(C(=O)CC3CCCC3)C2)c1 | 0.011 µM | 170 µM | 5.8 µM |  | 53 µM |  |
| CN[C@@H](C)C/C=C/c1cncc(O[C@@H]2CCN(C(=O)CCC(F)(F)F)C2)c1 | 0.0043 µM | 43 µM | 19 µM |  | 170 µM |  |
| CN[C@@H](C)C/C=C/c1cncc(O[C@@H]2CCN(C(=O)c3ccc(F)cc3)C2)c1 | 0.0067 µM | 100 µM | 6.8 µM |  | 53 µM |  |
| CN[C@@H](C)C/C=C/c1cnc(Cl)c(O[C@@H]2CCN(C(=O)C(C)C)C2)c1 | 0.0015 µM |  |  |  | 36 µM |  |
| CN[C@@H](C)C/C=C/c1cnc(Cl)c(O[C@@H]2CCN(C(=O)c3ccc(F)cc3F)C2)c1 | 0.0038 µM | 22 µM | 6.6 µM |  | 22 µM |  |
| CN[C@@H](C)C/C=C/c1cnc(Cl)c(O[C@@H]2CCN(C(=O)C(C)(C)C)C2)c1 | 0.0087 µM | 1.1 µM | 26 µM |  | 34 µM |  |
| CN[C@@H](C)C/C=C/c1cnc(Cl)c(O[C@@H]2CCN(C(=O)C3CCC3)C2)c1 | 0.0015 µM |  |  |  | 45 µM |  |
| CN[C@@H](C)C/C=C/c1cnc(Cl)c(O[C@@H]2CCN(C(=O)C3CCCC3)C2)c1 | 0.0029 µM |  |  |  | 6.1 µM |  |
| CN[C@@H](C)C/C=C/c1cnc(Cl)c(O[C@@H]2CCN(C(=O)CC(C)(C)C)C2)c1 | 0.016 µM |  |  |  | 6.5 µM |  |
| CN[C@@H](C)C/C=C/c1cnc(Cl)c(O[C@@H]2CCN(C(=O)CC(F)(F)F)C2)c1 | 0.0012 µM | 8.5 µM | 18 µM |  | 300 µM |  |
| CN[C@@H](C)C/C=C/c1cnc(Cl)c(O[C@@H]2CCN(C(=O)CC3CCCC3)C2)c1 | 0.0075 µM |  |  |  | 30 µM |  |
| CN[C@@H](C)C/C=C/c1cncc(O[C@H]2CCN(C(=O)C(C)C)C2)c1 | 0.0061 µM | 5.7 µM | 20 µM |  | 36 µM |  |
| CN[C@@H](C)C/C=C/c1cnc(Cl)c(O[C@@H]2CCN(C(=O)c3ccc(F)cc3)C2)c1 | 0.0033 µM | 3.7 µM | 2 µM |  | 61 µM |  |
